# In patent US11951095B2, “Non-hormonal compositions and methods for male contraception” (PHARMAJOR INTERNATIONAL, priority 2018, dated 2024):
# Structures can show the parent of a compound that is named as a salt.
# What was measured:
# [1] = tested on: Healthy Volunteers; settings: cited from earlier work
# [2] = tested on: male subjects; assay: Example 3: single administration contraceptive effect, semen analysis (IR formulation); type: in vivo, human
# Method: A study is undertaken to evaluate the effectiveness of the compositions of the present invention in the treatment of male subjects. The objective of the study is to determine whether oral intake of (R)-Silodosin formulation results in a contraceptive effect.
# A total of 7 subjects, aged 18 to 40 years were enrolled in an open-label study. An initial analysis of each subject's semen, collected via masturbation after 3 days of abstinence, is performed by microscopic examination of the fresh semen. Each subject receives one single dose of 12 mg immediate release (R)-Silodosin.
# A semen analysis of each subject is conducted 24 hours after the dosing.
# [3] = 4 mg twice a day; cited from earlier work
# [4] = cited from earlier work
# [5] = in vivo; cited from earlier work
# [6] = tested on: sexually active men; settings: in vivo; cited from earlier work
# [7] = tested on: male subjects; settings: in vivo; cited from earlier work
# [8] = tested on: participants; settings: cited from earlier work
# [9] = tested on: healthy volunteer men; settings: in vivo; cited from earlier work
# [10] = cited from earlier work; remark: listed apart in the source
# [11] = tested on: Healthy Volunteers; settings: 4 mg twice a day for 3 days; cited from earlier work
# [12] = tested on: prostatic smooth muscle; settings: cited from earlier work
# [13] = tested on: male; settings: cited from earlier work
# [14] = single dose 12 mg, immediate release (IR) formulation, 24 h, N = 7
# [15] = traditional formulations, with food
compound,measurement,setting,value
"CCOc1ccccc1OCCN[C@H](C)Cc1ccc(OC)c(S(N)(=O)=O)c1 [tamsulosin, (−)-(R)-5-[2-[[2-(o-Ethoxyphenoxy)ethyl]amino]propyl]-2-methoxybenzenesulfonamide, monohydrochloride]",ejaculation,[1]; 0.8-mg dose,An ejaculation was reached
same,functional sperm count,[1]; in vivo,significantly reduced
same,side effects including discomfort on ejaculation,[1]; in vivo,reported by some subjects
same,volume of semen,"[1]; single dose of 0.4 or 0.8 mg, 4 to 6 hours after dosing",dose dependent decrease
"C[C@H](Cc1cc2c(c(C(N)=O)c1)N(CCCO)CC2)NCCOc1ccccc1OCC(F)(F)F [(R)-Silodosin, (−)-(R)-1-(3-hydroxypropyl)-5-[2-[[2-[2-(2,2,2-trifluoroethoxy)phenoxy]ethyl]amino]propyl]indoline-7-carboxamide]",time for which contraception is maintained,[2]; after a 12-mg single dose,up to 24 h
same,Aspermia (subjects with effect),[2]; [14],6/7
same,Azoospermia (subjects with effect),[2]; [14],1/7
same,"Total, aspermia or azoospermia (subjects with effect)",[2]; [14],7/7
same,ejaculatory disorder,[3],high incidence
same,solubility in acetic acid,[4],very soluble
same,solubility in alcohol,[4],freely soluble
same,solubility in water,[4],very slightly soluble
same,sexual desire,[5],decrease
same,erectile function,[6],decrease
same,rate of discomfort upon ejaculation,[7],100%
same,spermatozoa in the semen and post-analysis urine,"[8]; 8 mg for 7 days, 2 hours after intake",no spermatozoa
same,semen analysis after switch to placebo,"[8]; Day 8 to 15 placebo, from day 2 of placebo",normal semen analysis
same,unintended pregnancy,"[8]; on demand 8 mg prior to intercourse, 6 months",no unintended pregnancy
same,quality of orgasm,[9],decrease
same,median Tmax,[10]; CDER NDA 22-206,about 2 hours
same,food effect on Cmax,[10]; [15],lower
same,food effect on Tmax,[10]; [15],delayed
same,seminal emission,[11],complete lack of seminal emission
same,"uroselectivity compared with other alpha-1 blockers, such as tamsulosin and naftopidil",[12],greater
CC(COc1ccccc1)N(CCCl)Cc1ccccc1 (centres unmarked) [phenoxybenzamine],effect following male orgasm,[13]; doses up to 20 mg/day,aspermia
same,reversal of ejaculation block with cessation of treatment,[13]; in vivo,fully reversed
